Reference: the OligoGym collection
Values joined by “and” are separate entries in the source; they are usually repeats but may differ in a detail not shown here. Equal values may be shown once. After the bases stand the sugars from the 5' end (letter, count) and the backbone: PS all phosphorothioate, else s phosphorothioate and o phosphodiester by linkage. Methylation of C is not given here. e = 2'-O-(2-methoxyethyl) (MOE); k = constrained ethyl (cEt); d = 2'-deoxy (DNA)

Target: IRF4
Conditions: ASO

Sequence | target mRNA inhibition (SK-MEL-28, 4 µM) | target mRNA inhibition (MM.1R, 1 µM) | further results
GAGGGTCTGGAAACTC (sugars k3 d10 k3, PS) | -4% | – | –
GCAAGTGTCTTCCACA (sugars k3 d10 k3, PS) | 77% | – | –
GCTCACTAAGCTTGAT (sugars k3 d10 k3, PS) | 56% | – | –
ACTGCTTGAGGTTTTC (sugars kkkdddddddddkeke, PS) | – | 38% | –
ACACTTTTAGAGAGGA (sugars kkddddddddddkeke, PS) | – | 14% | –
AAAAGAGCCGCCACAT (sugars k3 d10 k3, PS) | 16% | – | –
CCAGAGCAGTAAACGC (sugars k3 d10 k3, PS) | – | 11% | –
AGATGCGGAGGTTCCT (sugars k3 d10 k3, PS) | – | 32% | –
CCGGAGGAAGTCCCCT (sugars k3 d10 k3, PS) | – | 0% | –
GGCACATCAATGTTTT (sugars kkdddddddddkdkdk, PS) | – | 26% and 16% | –
GAATGCTCTCCATCAA (sugars k3 d10 k3, PS) | 45% | – | –
GAACAATCCTGTACAC (sugars k3 d10 k3, PS) | -5% | – | –
GGTTGGCTGGTCTTTG (sugars k2 d9 e3 k2, PS) | – | 69% and 65% | target mRNA inhibition (MM.1R, 0.0625 µM): 44%; target mRNA inhibition (MM.1R, 0.25 µM): 52%; target mRNA inhibition (MM.1R, 4 µM): 84%
CGTAACAACGACACAC (sugars k3 d10 k3, PS) | – | -35% | –
GGGAACAAAAGGTTCC (sugars k3 d10 k3, PS) | -11% | – | –
GAACATCTCAGATACA (sugars k3 d10 k3, PS) | 42% | – | –
GATGAGAATTCCAAAC (sugars k3 d10 k3, PS) | 84% | 14% | target mRNA inhibition (MM.1R, 0.0625 µM): -1%; target mRNA inhibition (MM.1R, 0.074 µM): 0%; target mRNA inhibition (MM.1R, 0.222 µM): 2%; target mRNA inhibition (MM.1R, 0.25 µM): 2%; target mRNA inhibition (MM.1R, 0.666 µM): 0%; target mRNA inhibition (MM.1R, 2 µM): 32%; target mRNA inhibition (MM.1R, 4 µM): 36%
AGTTCATGTAAAGTCT (sugars kdddddddddkekeke, PS) | – | 29% and 10% | –
GACGACAGCTGCGGAG (sugars k3 d10 k3, PS) | 45% | – | –
GCCGGCCTGGCCCTTC (sugars k3 d10 k3, PS) | -14% | – | –
GAGAAACGGCCTGGAG (sugars k3 d10 k3, PS) | 44% | – | –
CTACTCTTCAGGCACC (sugars k3 d10 k3, PS) | – | 18% | –
GCACGCAAGGCTCGGA (sugars k3 d10 k3, PS) | – | 7% | –
CTGTAACTGACTAACA (sugars k3 d10 k3, PS) | 23% | – | –
GCGCATAGGTCCTTCA (sugars k3 d10 k3, PS) | 63% | – | –

Sequence | target mRNA inhibition (SK-MEL-28, 4 µM) | target mRNA inhibition (MM.1R, 1 µM) | further results
CGGGAATTTCCATTGG (sugars k3 d10 k3, PS) | 50% | – | –
AAGCATTTTATCATCC (sugars kkdddddddddkdkdk, PS) | – | 3% | –
TACTGCTTGAGGTTTT (sugars k3 d10 k3, PS) | 50% | – | –
ATTCCGCGCGCAGAGC (sugars k3 d10 k3, PS) | – | -21% | –
GCTGATGGAGAAACGA (sugars k3 d10 k3, PS) | 7% | – | –
CAGTGACTTGCATCCA (sugars kkdddddddddkekek, PS) | – | 26% | –
GAAGCATTTTATCATC (sugars kkkddddddddkekek, PS) | – | -5% | –
GAACAGGACCTGGTCC (sugars k3 d10 k3, PS) | 25% | – | –
ACGCTTGCAGCTCTGA (sugars k3 d10 k3, PS) | 48% | – | –
TAAAGAATGAGGGTCA (sugars k3 d10 k3, PS) | 45% | – | –
TGCAAAATAGTCACTC (sugars k3 d10 k3, PS) | 48% | – | –
CTTCTTCTTTATGCGA (sugars k3 d10 k3, PS) | 66% | – | –
CTTAGAATGCATAACA (sugars k3 d10 k3, PS) | 26% | – | –
CATCCAAGAGTAGCGC (sugars k3 d10 k3, PS) | 73% and 63% | – | –
GCTAACTGGCCTCAAA (sugars k3 d10 k3, PS) | 9% | – | –
GTCTCTCACGCAGTGC (sugars k3 d10 k3, PS) | 50% | – | –
TGTCACCTGGCAACCA (sugars k3 d10 k3, PS) | 9% | – | –
ACCTACACAGGCTAAT (sugars k3 d10 k3, PS) | – | -4% | –
GTTAAAGGAGTGCAGG (sugars k3 d10 k3, PS) | -14% | – | –
AAAAAAGGTGCAAGCC (sugars k3 d10 k3, PS) | 7% | – | –
GTCCATGGGAGATCCG (sugars k3 d10 k3, PS) | 52% | – | –
CGGAGCTTCCCGTTGC (sugars k3 d10 k3, PS) | 35% | – | –
CAGAAAATATGTAACG (sugars k3 d10 k3, PS) | 22% | – | –
GCGCGGACGCACGGAG (sugars k3 d10 k3, PS) | 2% | – | –
CCAGAGCACACAGACG (sugars k3 d10 k3, PS) | 36% | – | –

Sequence | target mRNA inhibition (SK-MEL-28, 4 µM) | target mRNA inhibition (MM.1R, 1 µM) | further results
ACAGTGATCATCAATG (sugars k3 d10 k3, PS) | 56% | – | –
CAAGGAGGCGGGCCTT (sugars k3 d10 k3, PS) | -2% | – | –
CGAGCGGTGAAACTGA (sugars k3 d10 k3, PS) | 33% | – | –
GAATTAGGTGCTTAAT (sugars k3 d10 k3, PS) | 59% | – | –
ACCTACTCCATCACTT (sugars k3 d10 k3, PS) | -3% | – | –
TTATTAGACTGACAGC (sugars k3 d10 k3, PS) | 37% | – | –
ACTATAATTGGCACGA (sugars k3 d10 k3, PS) | 69% | – | target mRNA inhibition (SK-MEL-28, 0.185 µM): 6%; target mRNA inhibition (SK-MEL-28, 5 µM): 72%; target mRNA inhibition (SK-MEL-28, 15 µM): 90%
GCTCATGGCTGATAAT (sugars k3 d10 k3, PS) | – | -17% | –
AATTACTGCTTGAGGT (sugars k3 d10 k3, PS) | 58% | – | –
ATGTGTATTACTCTTA (sugars k3 d10 k3, PS) | – | 52% and 49% | –
TGGACATCTGCGGGTC (sugars k3 d10 k3, PS) | 44% | – | –
CAAGACCTAATCTACA (sugars k3 d10 k3, PS) | 12% | – | –
AGCATCTAAGGCAAGC (sugars k3 d10 k3, PS) | 57% | – | –
TCCCACGCGGGAGGCT (sugars k3 d10 k3, PS) | 1% | – | –
GACAGCTTCTTTGAAG (sugars k3 d10 k3, PS) | 36% | – | –
TTAGACATTACTAGAT (sugars k3 d10 k3, PS) | 45% | – | –
TAAGATCCCACGAAGG (sugars k3 d10 k3, PS) | – | 9% | –
GATGTGATAGCTGAGC (sugars kkddddddddddkeke, PS) | – | 64% | –
CTTAGGCACATCAATG (sugars k3 d10 k3, PS) | – | 8% | –
GATGGAACAGTAACTT (sugars k3 d10 k3, PS) | 51% | – | –
ACGAAGATTCAAAAGG (sugars k3 d10 k3, PS) | 36% | – | –
CCACGAGGCACCGCAC (sugars k3 d10 k3, PS) | -19% | – | –
GTGTGCTTGCCAAGCC (sugars kddddddddddkekek, PS) | – | 40% and 23% | –
TAATCTGTATCATGCA (sugars k3 d10 k3, PS) | – | 22% | –
CAAGCAGTGATGTCAG (sugars kddddddddddkekek, PS) | – | 35% and 43% | –
